Laboratory results taken from paper PMC7029851, “Antibacterial activity of novel dual bacterial DNA type II topoisomerase inhibitors” (PLoS ONE, 2020).
pIC50: −log10 of the molar value. Values joined by “and” are separate entries in the source; they are usually repeats but may differ in a detail not shown here. Equal entries are not always repeated. Structures can show the parent of a compound that is named as a salt. Where two headings read alike, the source gives them in different places.

Legend:
[1] = target: T1, E. coli DNA gyrase (Escherichia coli, UniProt P0AES4); assay: E. coli DNA gyrase supercoiling gel assay; format: biochemical
T1 construct: purchased Inspiralis (Norwich, UK)
Protocol: (§1) S. aureus and E. coli DNA gyrase supercoiling and topo IV decatenation assay kits, as well as human topoisomerase II decatenation assay kits, were provided by Inspiralis (Norwich, UK). Assays were performed according to the manufacturer’s instructions. The compounds were serially diluted (1:3 dilutions starting from a 300 μM final concentration) and assayed in a reaction mixture to obtain concentration-response curves in two different replicate experiments. The final concentration of DMSO in the assays was 1% (v/v). The reactions were terminated by the addition of 30 μl chloroform/isoamyl alcohol (26:1) and 30 μl Stop Dye (40% sucrose, 100 mM Tris HCl pH 7.5, 1 mM EDTA, 0.5 μg/ml bromophenol blue), after which the samples were loaded onto a 1.0% TAE ([…]) gel that was then run at 80 V for 2 hours. DNA bands were visualized by ethidium bromide staining the gel for 10 minutes, which was then destained for 10 minutes in water and analysed using gel documentation equipment (Syngene, Cambridge, UK). The DNA in each band was quantitated using Syngene Gene Tools software. Raw gel data (fluorescent band volumes) were converted by the software to percentages of the control (the fully supercoiled or decatenated DNA band). […] The global curve fit non-linear regression tool was used to calculate the IC50 values. The results are expressed as the average values obtained after calculating the IC50 from each replicate run.

[2] = target: T2, E. coli Topoisomerase IV (Escherichia coli, UniProt P0AFI2); assay: E. coli topoisomerase IV decatenation gel assay; format: biochemical
T2 construct: purchased Inspiralis (Norwich, UK)
Protocol: as §1

[3] = target: T3, S. aureus DNA gyrase (Staphylococcus aureus, UniProt P20831); assay: S. aureus DNA gyrase supercoiling gel assay; format: biochemical
T3 construct: purchased Inspiralis (Norwich, UK)
Protocol: as §1

[4] = target: T4, S. aureus Topoisomerase IV (Staphylococcus aureus, UniProt P0C1U9); assay: S. aureus topoisomerase IV decatenation gel assay; format: biochemical
T4 construct: purchased Inspiralis (Norwich, UK)
Protocol: as §1

[5] = target: T5, Human Topoisomerase II (Homo sapiens, UniProt P11388); assay: Human topoisomerase II decatenation gel assay; format: biochemical
T5 construct: purchased Inspiralis (Norwich, UK)
Protocol: as §1

[6] = test system: S. aureus ATCC 29213; assay: MIC, broth microdilution; format: cell-based, Staphylococcus aureus; conditions: Staphylococcus aureus, ATCC29213, S. aureus ATCC 29213, ciprofloxacin-susceptible
Protocol: (§2) MICs were determined by the broth microdilution method (the agar dilution method was used only for N. gonorrhoeae) according to CLSI guidelines.

[7] = test system: E. coli ATCC 25922; assay: MIC, broth microdilution; format: cell-based; conditions: Escherichia coli, ATCC25922; E. coli ATCC 25922, ciprofloxacin-susceptible
Protocol: as §2

[8] = test system: E. faecalis ATCC 29212; assay: MIC, broth microdilution; format: cell-based; conditions: Enterococcus faecalis, ATCC29212; E. faecalis ATCC 29212, ciprofloxacin-susceptible
Protocol: as §2

[9] = test system: H. influenzae ATCC 49766; assay: MIC, broth microdilution; format: cell-based; conditions: Haemophilus influenzae, ATCC49766; H. influenzae ATCC 49766, ciprofloxacin-susceptible
Protocol: as §2

[10] = test system: K. pneumoniae ATCC 700603; assay: MIC, broth microdilution; format: cell-based; conditions: Klebsiella pneumoniae, ATCC700603; K. pneumoniae ATCC 700603, ciprofloxacin-susceptible
Protocol: as §2

[11] = test system: P. aeruginosa ATCC 27853; assay: MIC, broth microdilution; format: cell-based; conditions: Pseudomonas aeruginosa, ATCC27853; P. aeruginosa ATCC 27853, ciprofloxacin-susceptible
Protocol: as §2

[12] = test system: S. aureus BAA-1720; assay: MIC, broth microdilution; format: cell-based; conditions: Staphylococcus aureus, BAA1720; S. aureus BAA-1720, ciprofloxacin-resistant
Protocol: as §2

[13] = test system: S. pneumoniae ATCC 49619; assay: MIC, broth microdilution; format: cell-based; conditions: Streptococcus pneumoniae, ATCC49619; S. pneumoniae ATCC 49619, ciprofloxacin-susceptible
Protocol: as §2

[14] = test system: N. gonorrhoeae ATCC 19424; assay: MIC, agar dilution; format: cell-based; conditions: Neisseria gonorrhoeae, ATCC19424; N. gonorrhoeae ATCC 19424, ciprofloxacin-susceptible
Protocol: as §2

[15] = test system: N. gonorrhoeae ATCC 49226; assay: MIC, agar dilution; format: cell-based; conditions: Neisseria gonorrhoeae, ATCC49226; N. gonorrhoeae ATCC 49226, ciprofloxacin-susceptible
Protocol: as §2

[16] = test system: N. gonorrhoeae WHO K; assay: MIC, agar dilution; format: cell-based; conditions: Neisseria gonorrhoeae, ciprofloxacin-resistant
Protocol: as §2

[17] = test system: N. gonorrhoeae WHO L; assay: MIC, agar dilution; format: cell-based; conditions: Neisseria gonorrhoeae, ciprofloxacin-resistant
Protocol: as §2

[18] = test system: N. gonorrhoeae WHO N; assay: MIC, agar dilution; format: cell-based; conditions: Neisseria gonorrhoeae, ciprofloxacin-resistant
Protocol: as §2

[19] = test system: E. coli TolC- mutant; assay: microbe, parasite or virus in culture; format: cell-based; conditions: Escherichia coli
Protocol: (§3) The bacterial reference strains used in this study were purchased from ATCC (American Type Culture Collection) via LGC Standards (Middlesex, UK). […] Clinical MDR isolates were provided by Aptuit, the IHMA Europa Sàrl repository (Epalinges, Switzerland) and the Statens Serum Institute (Copenhagen, Denmark).
as §2

[20] = test system: K. pneumoniae AcrAB- mutant; assay: microbe, parasite or virus in culture; format: cell-based; conditions: Klebsiella pneumoniae
Protocol: as §3, §2

[21] = test system: E. faecalis clinical isolates (n = 12) vanA (6)/vanB (6); assay: MIC, multidrug-resistant clinical isolates; format: cell-based; conditions: Enterococcus faecalis; for MIC: read-out: MIC range
Protocol: as §3, §2
(§4) The results obtained using clinical isolates are reported as MIC50 and MIC90 values.

[22] = test system: E. faecium clinical isolates (n = 12) vanA (6)/vanB (6); assay: MIC, multidrug-resistant clinical isolates; format: cell-based; conditions: Enterococcus faecium; for MIC: read-out: MIC range
Protocol: as §3, §2, §4

[23] = test system: N. gonorrhoeae clinical isolates (n = 38); assay: microbe, parasite or virus in culture; format: cell-based, Neisseria gonorrhoeae; conditions: for MIC50 / MIC90: Neisseria gonorrhoeae
Protocol: as §3, §2, §4

[24] = average of two replicate experiments, read-out: IC50 E. coli Gyrase Supercoiling (average)
[25] = replicate Assay 1, read-out: IC50 E. coli gyrase Supercoiling, Assay 1
[26] = replicate Assay 2, read-out: IC50 E. coli gyrase Supercoiling, Assay 2
[27] = average of two replicate experiments, read-out: IC50 E. coli Topoisomerase IV decatenation (average)
[28] = replicate Assay 1, read-out: IC50 E. coli Topoisomerase IV decatenation, Assay 1
[29] = replicate Assay 2, read-out: IC50 E. coli Topoisomerase IV decatenation, Assay 2
[30] = average of two replicate experiments, read-out: IC50 S. aureus Gyrase Supercoiling (average)
[31] = replicate Assay 1, read-out: IC50 S.aureus gyrase Supercoiling, Assay 1
[32] = replicate Assay 2, read-out: IC50 S.aureus gyrase Supercoiling, Assay 2
[33] = replicate Assay 1, read-out: IC50 S. aureus Topoisomerase IV decatenation, Assay 1
[34] = replicate Assay 2, read-out: IC50 S. aureus Topoisomerase IV decatenation, Assay 2
[35] = average of two replicate experiments, read-out: IC50 Human Topoisomerase II decatenation (average)
[36] = replicate Assay 1, read-out: IC50 Human Topoisomerase II (TopoII) decatenation, Assay 1
[37] = replicate Assay 2, read-out: IC50 Human Topoisomerase II (TopoII) decatenation, Assay 2

T5 sequence (P11388 whole entry): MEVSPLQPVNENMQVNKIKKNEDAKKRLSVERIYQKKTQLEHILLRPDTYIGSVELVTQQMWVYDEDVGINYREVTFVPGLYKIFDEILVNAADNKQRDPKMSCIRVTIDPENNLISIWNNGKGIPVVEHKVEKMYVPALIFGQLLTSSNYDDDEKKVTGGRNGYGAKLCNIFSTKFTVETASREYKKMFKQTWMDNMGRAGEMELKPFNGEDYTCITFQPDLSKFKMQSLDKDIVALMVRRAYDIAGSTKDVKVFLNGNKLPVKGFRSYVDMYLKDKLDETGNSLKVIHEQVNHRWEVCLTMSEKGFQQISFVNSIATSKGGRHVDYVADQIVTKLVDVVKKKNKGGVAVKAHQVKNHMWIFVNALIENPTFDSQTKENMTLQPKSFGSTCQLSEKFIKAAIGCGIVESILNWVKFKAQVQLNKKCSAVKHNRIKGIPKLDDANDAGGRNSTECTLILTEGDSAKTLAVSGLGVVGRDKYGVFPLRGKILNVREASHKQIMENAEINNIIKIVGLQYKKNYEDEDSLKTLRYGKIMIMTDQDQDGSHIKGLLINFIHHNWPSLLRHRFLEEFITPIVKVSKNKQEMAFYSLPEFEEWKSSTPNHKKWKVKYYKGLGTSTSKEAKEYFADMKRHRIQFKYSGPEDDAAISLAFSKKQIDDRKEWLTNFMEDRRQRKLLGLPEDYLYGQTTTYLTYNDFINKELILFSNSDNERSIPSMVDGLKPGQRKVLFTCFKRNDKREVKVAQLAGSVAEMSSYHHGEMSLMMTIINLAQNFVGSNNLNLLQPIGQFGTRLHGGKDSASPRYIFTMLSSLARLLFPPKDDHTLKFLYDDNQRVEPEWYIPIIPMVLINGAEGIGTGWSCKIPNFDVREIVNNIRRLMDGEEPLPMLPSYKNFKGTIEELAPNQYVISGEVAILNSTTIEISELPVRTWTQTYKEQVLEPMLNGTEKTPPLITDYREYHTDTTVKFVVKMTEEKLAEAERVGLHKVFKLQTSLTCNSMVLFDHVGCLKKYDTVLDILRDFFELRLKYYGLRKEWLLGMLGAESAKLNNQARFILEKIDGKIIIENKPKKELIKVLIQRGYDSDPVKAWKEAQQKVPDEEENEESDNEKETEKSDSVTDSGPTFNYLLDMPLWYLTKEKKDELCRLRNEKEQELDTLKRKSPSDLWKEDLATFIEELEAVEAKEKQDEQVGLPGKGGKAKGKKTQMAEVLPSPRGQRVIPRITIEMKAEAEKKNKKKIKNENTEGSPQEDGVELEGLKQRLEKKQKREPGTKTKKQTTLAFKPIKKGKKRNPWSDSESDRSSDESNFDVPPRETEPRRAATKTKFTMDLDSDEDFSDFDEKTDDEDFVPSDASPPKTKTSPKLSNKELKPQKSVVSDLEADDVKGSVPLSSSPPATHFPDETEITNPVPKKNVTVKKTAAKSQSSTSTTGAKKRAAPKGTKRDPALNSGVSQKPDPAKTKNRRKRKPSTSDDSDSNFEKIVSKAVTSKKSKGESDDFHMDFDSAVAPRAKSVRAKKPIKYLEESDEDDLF
T2 sequence (P20083 whole entry): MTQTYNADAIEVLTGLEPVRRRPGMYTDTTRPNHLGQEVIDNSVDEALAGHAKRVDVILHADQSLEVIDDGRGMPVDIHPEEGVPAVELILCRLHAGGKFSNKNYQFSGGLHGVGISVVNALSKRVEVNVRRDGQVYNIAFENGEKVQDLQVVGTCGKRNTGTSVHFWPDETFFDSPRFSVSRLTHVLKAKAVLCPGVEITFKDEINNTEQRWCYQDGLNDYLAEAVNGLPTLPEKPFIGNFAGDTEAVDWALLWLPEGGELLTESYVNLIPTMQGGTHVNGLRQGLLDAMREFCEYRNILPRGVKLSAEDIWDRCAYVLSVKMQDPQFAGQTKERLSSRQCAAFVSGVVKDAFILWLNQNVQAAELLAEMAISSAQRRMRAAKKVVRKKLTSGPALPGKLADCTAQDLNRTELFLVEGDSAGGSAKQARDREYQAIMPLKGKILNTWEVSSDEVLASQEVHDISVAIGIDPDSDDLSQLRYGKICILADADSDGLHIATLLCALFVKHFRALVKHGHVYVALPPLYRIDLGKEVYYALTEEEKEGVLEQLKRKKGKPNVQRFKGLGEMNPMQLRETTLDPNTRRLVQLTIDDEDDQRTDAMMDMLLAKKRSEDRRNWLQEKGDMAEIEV
T2 sequence (P0AFI2 whole entry): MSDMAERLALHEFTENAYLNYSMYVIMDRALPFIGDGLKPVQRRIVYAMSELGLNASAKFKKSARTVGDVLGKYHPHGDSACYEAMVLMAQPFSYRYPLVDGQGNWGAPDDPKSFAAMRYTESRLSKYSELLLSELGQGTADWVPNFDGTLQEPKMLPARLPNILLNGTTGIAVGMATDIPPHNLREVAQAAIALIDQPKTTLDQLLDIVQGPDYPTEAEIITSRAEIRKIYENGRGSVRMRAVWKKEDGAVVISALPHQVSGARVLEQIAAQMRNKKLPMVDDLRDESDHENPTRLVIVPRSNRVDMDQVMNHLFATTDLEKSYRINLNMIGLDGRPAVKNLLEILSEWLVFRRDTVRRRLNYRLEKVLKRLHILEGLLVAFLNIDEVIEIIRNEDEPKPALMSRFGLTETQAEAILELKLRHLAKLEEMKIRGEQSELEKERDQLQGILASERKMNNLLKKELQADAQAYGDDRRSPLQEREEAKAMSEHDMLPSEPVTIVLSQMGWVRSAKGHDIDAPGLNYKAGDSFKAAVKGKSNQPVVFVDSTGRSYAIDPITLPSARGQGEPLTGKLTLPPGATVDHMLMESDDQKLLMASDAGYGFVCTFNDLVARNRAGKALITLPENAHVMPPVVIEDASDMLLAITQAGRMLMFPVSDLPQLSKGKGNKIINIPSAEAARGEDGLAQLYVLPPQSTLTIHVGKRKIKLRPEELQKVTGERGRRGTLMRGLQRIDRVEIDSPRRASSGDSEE
T1 sequence (P0AES4 whole entry): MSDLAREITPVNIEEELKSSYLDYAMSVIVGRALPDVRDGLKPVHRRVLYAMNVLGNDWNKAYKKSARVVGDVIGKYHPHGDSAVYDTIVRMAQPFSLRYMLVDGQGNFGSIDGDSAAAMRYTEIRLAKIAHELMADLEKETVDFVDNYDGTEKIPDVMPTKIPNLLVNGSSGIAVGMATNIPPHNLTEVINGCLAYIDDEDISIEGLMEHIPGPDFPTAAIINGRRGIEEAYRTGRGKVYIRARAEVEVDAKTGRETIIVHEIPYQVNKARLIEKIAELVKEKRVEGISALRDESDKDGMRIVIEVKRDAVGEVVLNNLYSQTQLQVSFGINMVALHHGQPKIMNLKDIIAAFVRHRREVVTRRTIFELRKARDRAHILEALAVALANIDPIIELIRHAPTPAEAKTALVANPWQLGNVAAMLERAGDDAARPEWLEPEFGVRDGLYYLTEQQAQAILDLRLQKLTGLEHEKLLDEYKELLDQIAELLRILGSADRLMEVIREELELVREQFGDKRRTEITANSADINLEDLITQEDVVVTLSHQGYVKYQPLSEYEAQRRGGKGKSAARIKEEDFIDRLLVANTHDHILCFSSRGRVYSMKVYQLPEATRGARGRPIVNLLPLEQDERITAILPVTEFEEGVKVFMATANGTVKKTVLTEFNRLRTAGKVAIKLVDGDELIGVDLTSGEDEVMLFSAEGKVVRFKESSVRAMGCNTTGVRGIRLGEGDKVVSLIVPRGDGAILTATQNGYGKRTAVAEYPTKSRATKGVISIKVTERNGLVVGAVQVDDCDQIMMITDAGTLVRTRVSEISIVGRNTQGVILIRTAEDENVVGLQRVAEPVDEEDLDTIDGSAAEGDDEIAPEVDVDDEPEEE

Compound	pIC50 [1, 24]	pIC50 [1, 25]	pIC50 [1, 26]	pIC50 [2, 27]	pIC50 [2, 28]	pIC50 [2, 29]	pIC50 [3, 30]	pIC50 [3, 31]	pIC50 [3, 32]	pIC50 [4, 33]	pIC50 [4, 34]	pIC50 [5, 35]	pIC50 [5, 36]	pIC50 [5, 37]	MIC [6]	MIC [7]	MIC [8]	MIC [9]	MIC [10]	MIC [11]	also measured
O=c1oc2ccc(F)cc2c2[nH]c(CN[C@H]3CC[C@H](n4c(=O)cnc5ncc(F)cc54)CC3)cc12 [Compound 4, 8-fluoro-2-({[trans-4-(7-fluoro-2-oxopyrido[2,3-b]pyrazin-1(2H)-yl)cyclohexyl]amino}methyl)[1]benzopyrano[4,3-b]pyrrol-4(1H)-one (formate salt)]	6.89	6.82	6.92	6.52	6.30	6.70	6.00	6.10	5.92	6.59	6.77	< 3.52	< 3.52	< 3.52	0.25 mg/L	0.5 mg/L	0.5 mg/L	0.12 mg/L	4 mg/L	2 mg/L	pIC50 [4]: 6.66; MIC [12]: 0.5 mg/L; MIC [13]: 0.25 mg/L; MIC [14]: ≤ 0.06 mg/L; MIC [15]: 0.06 mg/L; MIC [16]: 0.12 mg/L; MIC [17]: 0.12 mg/L; MIC [18]: 0.06 mg/L; MIC [19]: ≤ 0.016 mg/L; MIC [20]: 0.03 mg/L; MIC50 [21]: 0.25 mg/L; MIC90 [21]: 0.5 mg/L; MIC [21]: 0.12 to 1 mg/L; MIC50 [22]: 1 mg/L; MIC90 [22]: 1 mg/L; MIC [22]: 0.25 to 8 mg/L; MIC range [23]: 0.004 to 0.12 mg/L; MIC50 [23]: 0.06 mg/L; MIC90 [23]: 0.12 mg/L
COc1cnc2ncc(=O)n([C@H]3CC[C@H](NCc4cc5c(=O)oc6ccc(F)cc6c5[nH]4)CC3)c2c1 [Compound 5, 8-Fluoro-2-({[trans-4-(7-methoxy-2-oxopyrido[2,3-b]pyrazin-1(2H)-yl)cyclohexyl]amino}methyl)[1]benzopyrano[4,3-b]pyrrol-4(1H)-one hydrochloride]	7.00	7.05	7.00	6.85	6.92	6.80	6.77	6.80	6.77	7.10	7.22	5.04 and 5.05	5.26	4.89	0.5 mg/L	0.5 mg/L	0.25 mg/L	0.12 mg/L	8 mg/L	4 mg/L	pIC50 ([4]; average of two replicate experiments, read-out: IC50 S. aureus Topoisomerase IV decatenation (average)): 7.15; MIC [12]: 1 mg/L; MIC [13]: 0.5 mg/L; MIC [14]: ≤ 0.06 mg/L; MIC [15]: 0.125 mg/L; MIC [16]: 0.25 mg/L; MIC [17]: 0.25 mg/L; MIC [18]: 0.12 mg/L; MIC [19]: ≤ 0.016 mg/L; MIC [20]: 0.03 mg/L; MIC50 [21]: 0.5 mg/L; MIC90 [21]: 2 mg/L; MIC [21]: 0.25 to 4 mg/L; MIC50 [22]: 1 mg/L; MIC90 [22]: 4 mg/L; MIC [22]: 0.25 to 8 mg/L; MIC range [23]: 0.016 to 0.25 mg/L; MIC50 [23]: 0.12 mg/L; MIC90 [23]: 0.25 mg/L
